Experimental data reported in US8476270B2, “Dihydropyrido[4,3-b]pyrazine-3-ones as modulators of toll-like receptors” (Gilead Sciences, Inc., priority 2009, dated 2013).

The compounds below were run on human Peripheral Blood Mononuclear Cell (PMBC) (assay: PBMC assay: cytokine (IFN-alpha) stimulation at 24 hours). Details: 24 hours incubation, IFN-alpha in supernatant (Luminex).
Format: cell-based
Method: PBMC Assay Protocol Assays were conducted to determine cytokine stimulation at 24 hours from human Peripheral Blood Mononuclear Cell (PMBC) using the compounds of the present invention. The assays were run in duplicate, with 8-point, half-log dilution curves. The compounds of the present invention were diluted from 10 mM DMSO solution. Cell supernatants are assayed directly for IFNa and 1:10 dilution for TNFa. The assays were performed in a similar fashion as described in Bioorg. Med. Chem. Lett. 16, 4559, (2006). Specifically, cryo-preserved PBMCs were thawed and seeded 96 well plates with 750,000 cells/well in 190 μL/well cell media. The PBMCs were then incubated for 1 hour at 37° C. at 5% CO2. Then, the compounds of the present invention were added in 10 μL cell media at 8 point, half-log dilution titration. The plates were incubated at 37° C. and 5% CO2 for 24 hours and then spinned at 1200 rpm for 10 min, which was followed by collecting supernatant and storing the same at −80° C. Cytokine secretion was assayed with Luminex and Upstate multi-plex kits, using a Luminex analysis instrument. IFN ECmax value for a compound was the concentration at which the compound stimulated maximum IFN-a production as determined using the assay method above.

Row | Structure (SMILES) | MEC = minimum concentration for induction of IFN-alpha = 3-fold over background
1 | COCCOc1cc2c(c(N)n1)NC(=O)CN2Cc1ccc(CN2CCCC2)cc1 [C] | a (a: = 1 nM)
2 | CCCCOc1cc2c([nH]c(=O)c(=O)n2Cc2ccc(-c3cccc(CN4CCCC4)c3)cc2)c(N)n1 [F] | c (c: 10 nM-99 nM)
3 | CCCCOc1cc2c(c(N)n1)NC(=O)CN2Cc1cccc(CN2CCCC2)c1 [A] | d (d: 100 nM-1000 nM)
4 | CCCCOc1cc2c([nH]c(=O)c(=O)n2Cc2ccc(-c3ccc(CN4CCCC4)cc3)cc2)c(N)n1 [G] | c (c: 10 nM-99 nM)
5 | CCCCOc1cc2c(c(N)n1)NC(=O)CN2Cc1ccc(CN2CCCC2)cc1 [B] | c (c: 10 nM-99 nM)
6 | CCCCOc1cc2c([nH]c(=O)c(=O)n2Cc2ccc(CN3CCCC3)cc2)c(N)n1 [E] | b (b: 1 nM-9 nM)
7 | COCCOc1nc(N)c2c(c1Cl)N(Cc1ccc(CN3CCCC3)cc1)CC(=O)N2 [D] | e (e: = 1000 nM)
